Results as given in patent publication US10501460B2, “Heterocyclic compounds and uses thereof” (Plexxikon Inc., priority 2013, dated 2019).
pIC50: −log10 of the molar value.

Columns and labels:
MV-4-11 = assay: Oncology cell growth assay MV-4-11 (CellTiter Glo, 72 hours); assay type: cell-based; conditions: Homo sapiens, MV4-11, 72 h; MV-4-11 cell growth inhibitory activity, 3d
Text: (§1) Published bromodomain inhibitors JQ1 and iBET 151 have shown activity in variety of cancer cells such leukemia and lymphoma, multiple myeloma cells, NUT midline carcinoma and glioblastoma cells (Dawson M A et al. 2011; Delmore J E 2011; Chen Z et al. 2013; Filippakopoulos P et al. 2010; Mertz J A et al. 2011; Ott C J et al. 2012). In this study, we test compounds in different cancer cell lines. MV-4-11 and MOLM-13 are AML cell lines harboring a MLL-AF4 and MLL-AF9 translocation, respectively. MM.1S is a multiple myeloma cell line. SK-N-AS, IMR-32 and SK-N-BE(2) are neuroblastoma cell lines. IMR-32 and SK-N-BE(2) cell lines harbor MYCN amplifications. MV-4-11, MM.1S, IMR-32, SK-N-AS and SK-N-BE(2) were obtained from ATCC (IL, USA) and MOLM-13 were purchased from DSMZ (Braunschweig, German). Cells are cultured as recommended by their sources. For growth inhibition studies 3000 cells are seeded in wells of a 96-well plate in 75 μL of culture media. After several hours, growth media containing compounds of formula (I) are added to the wells. Compound at a maximal concentration of 5 mM was serially diluted 1:3 for a total of 8 point titration with DMSO as a control. A 1 μL aliquot of each dilution point is added to 249 μL growth media and 75 μL is added to each well containing cells, providing 10 μM compound at the maximum concentration point. The final concentration of DMSO in all wells is 0.2%. Cells are incubated for 72 hours, and 25 μL of CellTiter Glo Reagent (Promega Ga., USA) is added to each well. Plates are shaken for approximately 10 minutes and chemiluminescent signal is read on Tecan microplate reader. The measured luminescence correlates directly with cell number.
(§2) All data is normalized to the mean of eight DMSO high control wells on each plate. A four parameter curve fit of the following formula was then applied: Y=a+(b−a)/(1+(x/c)^d) Where ‘a’ is the minimum, ‘b’ is the maximum, ‘c’ is the pIC50 and ‘d’ is the Hill slope. […] Myc Reporter Assay
The following table provides data indicating the BRD4 biochemical inhibitory activity and MV-4-11 cell growth inhibitory activity for exemplary compounds as described herein.

bromodomain = assay: Bromodomain cell assays of Example 40 (at least one of them); assay type: cell-based; conditions: in at least one of the bromodomain cell assays described in Example 40
Text: as §1, §2
In MV-4-11 cells, BRD2, BRD3 and BRD4 bind to the promoter region of MYC and regulate its transcription (Dawson M A et al. 2011). The literature bromodomain inhibitor iBET 151 could disrupt BRD4 recruitment to the MYC promoter and subsequently downregulate c-myc transcription (Dawson M A et al. 2011). Myc protein is a transcription factor that heterodimerizes with an obligatory partner Max and regulates the transcription of genes important for cell proliferation, differentiation, and apoptosis. This Myc reporter assay is used to monitor the inhibitory effect of compound of formula (I) on Myc dependent gene expression. Effective compounds could have potential therapeutic effects in Myc-driven tumors.
The MV-4-11 Myc reporter cell line is established by infecting MV-4-11 with VSV-g pseudotyped lentivirus expressing the firefly luciferase gene under the control of a minimal (m) CMV promoter and tandem repeats of the E-box transcriptional response element (TRE) (Qiagen IL, USA) and selecting cells in […] Puromycin.
The MV-4-11 Myc reporter cell line is maintained in Iscove's Modified Dulbecco's Medium containing 10% FBS, 1% PenStep and 2.5 μg/ml Puromycin. Cells are incubated at 37° C. in a humidified atmosphere with 5% CO2. 25,000 cells are seeded in 96-well plate in 50 μL of culture media. After several hours, growth media containing 2× compounds are added to the wells. Compound at a maximal concentration of 5 mM is serially diluted 1:3 for a total of 8 point titration. A 1 μl aliquot of each dilution point is added to 249 μl growth media and 50 μl is added to each well containing cells, providing 10 μM compound at the maximum concentration point. DMSO treated cells serve as a high control and 10 μM JQ1 treated cells serve as a low control. Cells are incubated for a further 24 hours and 25 μL of CellTiter-Fluo Reagent (Promega Ga., USA) is added to each well. Plates are shaken for approximately 2 minutes and incubated at 37° C. for 0.5 hour. […]

Row | SMILES | IC50 (MV-4-11) | pIC50 (bromodomain)
1 | Cc1noc(C)c1-c1cnc2[nH]cc(Cc3ccccc3OC(F)F)c2c1 [P-0047, 4-[3-[[2-(difluoromethoxy)phenyl]methyl]-1H-pyrrolo[2,3-b]pyridin-5-yl]-3,5-dimethyl-isoxazole] | 1 to 10 µM | > 5.00
2 | Cc1noc(C)c1-c1cnc2c(-c3cn[nH]c3)cn(S(=O)(=O)C3CCCC3)c2c1 [P-0167, 4-[1-cyclopentylsulfonyl-3-(1H-pyrazol-4-yl)pyrrolo[3,2-b]pyridin-6-yl]-3,5-dimethyl-isoxazole] | ≤ 1 µM | > 5.00
3 | Cc1noc(C)c1-c1cnc2[nH]cc(S(=O)(=O)c3cccc(F)c3)c2c1 [P-0143, 4-[3-(3-fluorophenyl)sulfonyl-1H-pyrrolo[2,3-b]pyridin-5-yl]-3,5-dimethyl-isoxazole] | ≤ 1 µM | > 5.00
4 | Cc1noc(C)c1-c1cnc2c(-c3cnn(C)c3)cn(S(=O)(=O)c3ccccc3F)c2c1 [P-0121, 4-[1-(2-fluorophenyl)sulfonyl-3-(1-methylpyrazol-4-yl)pyrrolo[3,2-b]pyridin-6-yl]-3,5-dimethyl-isoxazole] | ≤ 1 µM | > 5.00
5 | COCCn1cc(-c2cn(S(=O)(=O)C3CCCC3)c3cc(-c4c(C)noc4C)cnc23)cn1 [P-0151, 4-[1-cyclopentylsulfonyl-3-[1-(2-methoxyethyl)pyrazol-4-yl]pyrrolo[3,2-b]pyridin-6-yl]-3,5-dimethyl-isoxazole] | ≤ 1 µM | > 5.00
6 | Cc1noc(C)c1-c1cnc2[nH]cc(C(O)c3ccccc3OC(F)F)c2c1 (centres unmarked) [P-0040, [2-(difluoromethoxy)phenyl]-[5-(3,5-dimethylisoxazol-4-yl)-1H-pyrrolo[2,3-b]pyridin-3-yl] methanol] | ≤ 1 µM | > 5.00
7 | CCCS(=O)(=O)n1cc(-c2cnn(C3CCOC3)c2)c2ncc(-c3c(C)noc3C)cc21 (centres unmarked) [P-0154, 3,5-dimethyl-4-[1-propylsulfonyl-3-(1-tetrahydrofuran-3-ylpyrazol-4-yl)pyrrolo [3,2-b]pyridin-6-yl] isoxazole] | ≤ 1 µM | > 5.00
8 | CCn1cc(-c2cn(S(=O)(=O)c3ccccc3F)c3cc(-c4c(C)noc4C)cnc23)cn1 [P-0125, 4-[3-(1-ethylpyrazol-4-yl)-1-(2-fluorophenyl)sulfonyl-pyrrolo[3,2-b]pyridin-6-yl]-3,5-dimethyl-isoxazole] | ≤ 1 µM | > 5.00
9 | Cc1noc(C)c1-c1cnc2c(-c3cnn(C(F)F)c3)cn(S(=O)(=O)C3CCC3)c2c1 [P-0134, 4-[1-cyclobutylsulfonyl-3-[1-(difluoromethyl)pyrazol-4-yl]pyrrolo[3,2-b]pyridin-6-yl]-3,5-dimethyl-isoxazole] | ≤ 1 µM | > 5.00
10 | Cc1noc(C)c1-c1cnc2c(C#CCO)cn(S(=O)(=O)c3ccccc3)c2c1 [P-0155, 3-[1-(benzenesulfonyl)-6-(3,5-dimethylisoxazol-4-yl)pyrrolo[3,2-b]pyridin-3-yl]prop-2-yn-1-ol] | ≤ 1 µM | 
11 | Cc1noc(C)c1-c1cnc2ccn(Cc3ccccc3)c2c1 [P-0162, 4-(1-benzylpyrrolo[3,2-b]pyridin-6-yl)-3,5-dimethyl-isoxazole] | ≤ 1 µM | 
12 | Cc1noc(C)c1-c1cnc2c(-c3cnn(C(F)F)c3)cn(S(=O)(=O)C3CCCC3)c2c1 [P-0133, 4-[1-cyclopentylsulfonyl-3-[1-(difluoromethyl)pyrazol-4-yl]pyrrolo [3,2-b]pyridin-6-yl]-3,5-dimethyl-isoxazole] | ≤ 1 µM | 
13 | Cc1noc(C)c1-c1cnc2c(c1)c(C(O)C1CCC(F)(F)CC1)cn2C (centres unmarked) [P-0101, (4,4-difluorocyclohexyl)-[5-(3,5-dimethylisoxazol-4-yl)-1-methyl-pyrrolo[2,3-b]pyridin-3-yl]methanol] |  | > 5.00
14 | CCc1[nH]c2ncc(-c3c(C)noc3C)cc2c1CC1CCC(F)(F)CC1 [P-0051, 4-[3-[(4,4-difluorocyclohexyl)methyl]-2-ethyl-1H-pyrrolo[2,3-b]pyridin-5-yl]-3,5-dimethyl-isoxazole] |  | > 5.00
15 | Cc1noc(C)c1-c1cnc2[nH]cc(P(=O)(c3ccccc3)c3ccccc3)c2c1 [P-0166, 4-(3-diphenylphosphoryl-1H-pyrrolo[2,3-b]pyridin-5-yl)-3,5-dimethyl-isoxazole] | ≤ 1 µM | 
16 | CCn1cc(-c2cn(S(=O)(=O)c3ccccc3)c3cc(-c4c(C)noc4C)cnc23)cn1 [P-0124, 4-[1-(benzenesulfonyl)-3-(1-ethylpyrazol-4-yl)pyrrolo[3,2-b]pyridin-6-yl]-3,5-dimethyl-isoxazole] | ≤ 1 µM | 

Second part, the molecule after the results:

Row | IC50 (MV-4-11) | pIC50 (bromodomain) | SMILES
17 | ≤ 1 µM | > 5.00 | Cc1noc(C)c1-c1cnc2c(-c3cnn(C)c3)cn(CC3CCC(F)(F)CC3)c2c1 [P-0209, 4-[1-[(4,4-difluorocyclohexyl)methyl]-3-(1-methylpyrazol-4-yl)pyrrolo[3,2-b]pyridin-6-yl]-3,5-dimethyl-isoxazole]
18 | ≤ 1 µM |  | Cc1noc(C)c1-c1cnc2c(c1)c(Sc1ccccc1)cn2-c1cnn(C)c1 [P-0184, 3,5-dimethyl-4-[1-(1-methylpyrazol-4-yl)-3-phenylsulfanyl-pyrrolo[2,3-b]pyridin-5-yl]isoxazole]
19 |  | > 5.00 | Cc1noc(C)c1-c1cnc2c(-c3cnn(C4CC4)c3)cn(CC3(F)CCCCC3)c2c1 [P-0236, 4-[3-(1-cyclopropylpyrazol-4-yl)-1-[(1-fluorocyclohexyl)methyl]pyrrolo[3,2-b]pyridin-6-yl]-3,5-dimethyl-isoxazole]
20 | ≤ 1 µM |  | Cc1noc(C)c1-c1cnc2c(-c3cnn(C(F)F)c3)cn(C(C)c3ccccc3)c2c1 (centres unmarked) [P-0177, 4-[3-[1-(difluoromethyl)pyrazol-4-yl]-1-(1-phenylethyl)pyrrolo[3,2-b]pyridin-6-yl]-3,5-dimethyl-isoxazole]
21 |  | > 5.00 | Cc1noc(C)c1-c1cnc2c(-c3cnn(CC(F)(F)F)c3)cn(CC3(F)CCCCC3)c2c1 [P-0237, 4-[1-[(1-fluorocyclohexyl)methyl]-3-[1-(2,2,2-trifluoroethyl)pyrazol-4-yl]pyrrolo[3,2-b]pyridin-6-yl]-3,5-dimethyl-isoxazole]
22 |  | > 5.00 | Cc1noc(C)c1-c1cnc2c(I)cn(CC3(F)CCC4(CC3)OCCO4)c2c1 [P-0240, 4-[1-[(8-fluoro-1,4-dioxaspiro[4.5]decan-8-yl)methyl]-3-iodo-pyrrolo[3,2-b]pyridin-6-yl]-3,5-dimethyl-isoxazole]
23 |  | > 5.00 | Cc1noc(C)c1-c1ccc2c(-c3cnn(C)c3)cn(Cc3c(F)cccc3F)c2c1 [P-0229, 4-[1-[(2,6-difluorophenyl)methyl]-3-(1-methylpyrazol-4-yl)indol-6-yl]-3,5-dimethyl-isoxazole]
24 |  | > 5.00 | Cc1noc(C)c1-c1ccc2c(-c3cnn(C)c3)cn(Cc3ccccc3Cl)c2c1 [P-0227, 4-[1-[(2-chlorophenyl)methyl]-3-(1-methylpyrazol-4-yl)indol-6-yl]-3,5-dimethyl-isoxazole]
25 |  | > 5.00 | Cc1noc(C)c1-c1ccc2c(-c3cnn(C)c3)cn(Cc3ccccc3C(F)(F)F)c2c1 [P-0228, 3,5-dimethyl-4-[3-(1-methylpyrazol-4-yl)-1-[[2-(trifluoromethyl)phenyl]methyl]indol-6-yl]isoxazole]
